Test results reported in patent US9346741B2, “Polyamine transport selective therapeutic agents with enhanced stability” (University of Central Florida Research Foundation, Inc., priority 2012, dated 2016).
“Also recorded” adds a separate entry of the source. Where two headings read alike, the source gives them in different places.

Experiments:
MALME-3 cells = assay: Cytotoxicity IC50 determination (MTS) in MALME-3 cells; format: cell-based, human; conditions: for IC50: 96 h at 37° C., 1 mM AG, 10% FBS
Experimental: Armed with this insight, compounds 5a-8b were evaluated in the MALME-3M (melanoma) cell line and its non-cancerous counterpart MALME-3 obtained originally from the same patient. These matched cell lines provided a method to assess PTS selectivity for the cancer line (MALME-3M) over the non-cancerous cell line (MALME-3).
(§1) CHO and CHO-MG cells were grown in RPMI 1640 medium supplemented with 10% fetal calf serum and 1% penicillin/streptomycin. Note: the media must contain L-proline (2 μg/mL) for proper growth of the CHO-MG cells. MALME-3M cells were grown in RPMI 1640 medium supplemented with 10% FBS and 1% penicillin/streptomycin. All cells were grown at 37° C. under a humidified 5% CO2 atmosphere Aminoguanidine (1 mM) was added to the growth medium to prevent oxidation of the drugs by the enzyme (bovine serum amine oxidase) present in calf serum. Cells in early to mid-log phase were used.
(§2) Cell growth was assayed in sterile 96-well microtiter plates (Costar 3599, Corning, N.Y., USA). CHO and CHO-MG* cells were plated at 10,000 cells/mL. MALME-3M and MALME-3 cells were plated at 5,000 cells/mL. Drug solutions (10 μL per well) of appropriate concentration were added after an overnight incubation for each CHO cell line (90 μL). 48 h MALME-3M experiments were conducted using 10% Nu-Serum IV, and 96 h MALME-3M and MALME-3 experiments were conducted using 10% FBS. After exposure to the drug for 48 h (CHO, CHO-MG*, and MALME-3M) or 96 h (MALME-3M and MALME-3), cell growth was determined by measuring formazan
(§3) formation from 3-(4,5-dimethylthiazol-2-yl)-5-(3-carboxymethoxyphenyl)-2-(4-sulphenyl)-2H-tetrazolium) inner salt (MTS) using a SynergyMx Biotek microplate reader for absorbance ([…]) measurements.^24

MALME-3M cells = assay: Cytotoxicity IC50 determination (MTS) in MALME-3M cells; format: cell-based, human
Experimental: Armed with this insight, compounds 5a-8b were evaluated in the MALME-3M (melanoma) cell line and its non-cancerous counterpart MALME-3 obtained originally from the same patient. These matched cell lines provided a method to assess PTS selectivity for the cancer line (MALME-3M) over the non-cancerous cell line (MALME-3). […]
as §1, §2, §3

[1] = test system: 60 human cancer cell lines; assay: NCI 60 cell-line screen; format: cell-based; conditions: 10 μM; 48 h
Experimental: Once compounds 6a-b, 7a-b, and 8a-8b were evaluated in CHO and CHO-MG*, these compounds were sent to the National Cancer institute (NCI) to conduct its 60 cell-line screen to determine if these compounds could also be potent anti-cancer agents for human cancer cell lines. […] As shown in FIGS. 2A-2C, dose response curves were generated based upon the 60 cell-line screen at different molar concentrations of each PTS targeting agent 6b, 7b, and 8b.
To generate FIGS. 2A-2C, the respective drug was dosed at 10 μM into each human cancer cell line and cell viability was assessed after a 48 h incubation at 37° C. in an environment of 5% CO2, 95% air and 100% relative humidity. A more descriptive methodology can be found at the NCI website: http://dtp.nci.nih.gov/branches/btb/ivclsp.html. Cell lines which gave bar graphs which extend to the right of the central line were more sensitive to the drug than cell lines which extended to the left of the center line.

CHO cells = assay: cells; format: cell-based; conditions: for IC50: 48 h at 37° C.
Description: (§4) CHO cells were chosen along with a mutant cell line (CHO-MG*) to comment on how the synthetic conjugates gain access to the cells.^2c-e, 6 As discussed earlier, the CHO-MG cell line is polyamine-transport deficient and represents a model for alternative modes of entry (other than PTS) including passive diffusion or use of another transporter. The CHO cell line on the other hand, represents cells with high polyamine transport activity.^7, 10c A comparison of toxicity in these two CHO cell lines allowed for a screen that would detect selective use of the polyamine transporter. This is seen where high utilization of the PTS would be very toxic to CHO cells, however, there would not be the same level of toxicity found in CHO-MG cells.^2c-e, 6 Ultimately, a CHO-MG/CHO IC50 can be determined where a high ratio would be achieved for highly PTS selective compounds.
(§5) CHO and CHO-MG cells were grown in RPMI 1640 medium supplemented with 10% fetal calf serum and 1% penicillin/streptomycin. Note: the media must contain L-proline (2 μg/mL) for proper growth of the CHO-MG cells. MALME-3M cells were grown in RPMI 1640 medium supplemented with 10% FBS and 1% penicillin/streptomycin. […] Cells in early to mid-log phase were used.
as §2, §3

CHO-MG* cells = assay: Cytotoxicity IC50 determination (MTS) in polyamine-transport-deficient CHO-MG* cells; format: cell-based, Chinese hamster; conditions: 48 h at 37° C.
Description: as §4, §5, §2, §3

[2] = test system: polyamine transport system (PTS), CHO-MG* vs CHO cells; assay: CHO-MG*/CHO IC50 ratio, a measure of PTS selectivity; format: cell-based, Chinese hamster; conditions: 48 h; for IC50 ratio w/AG (CHO-MG*/CHO): with 1 mM AG; for IC50 ratio w/o AG (CHO-MG*/CHO): without AG
Description: Compounds with high CHO-MG/CHO IC50 ratios are considered PTS selective.
as §4

[3] = test system: MALME-3M (melanoma) vs MALME-3 (normal) cells; assay: MALME-3/MALME-3M IC50 ratio, a measure of selectivity; format: cell-based, human; conditions: 96 h; 1 mM AG
Description: These matched cell lines provided a method to assess PTS selectivity for the cancer line (MALME-3M) over the non-cancerous cell line (MALME-3).

[4] = test system: 60 human cancer cell lines; assay: NCI 60 cell-line screen; format: cell-based; conditions: 5-dose assay
[5] = test system: polyamine transport system (PTS) in L1210 cells; conditions: cited from earlier work
[6] = 1 mM AG 24 h prior to drug addition, read-out: CHO IC50 (μM) w/AG
[7] = without AG, read-out: CHO IC50 (μM) w/o AG
[8] = 1 mM AG 24 h prior to drug addition, read-out: CHO-MG* IC50 (μM) w/AG
[9] = without AG, read-out: CHO-MG* IC50 (μM) w/o AG
[10] = 48 h at 37° C., 1 mM AG, 10% Nu-Serum IV, read-out: MALME-3M IC50 (μM) w/ AG
[11] = 48 h at 37° C., without AG, 10% Nu-Serum IV, read-out: MALME-3M IC50 (μM) w/o AG
[12] = 96 h at 37° C., 1 mM AG, 10% FBS, read-out: MALME-3M IC50

Structure (SMILES): N=C(N)NN [AG, aminoguanidine, reference compound]
- toxicity of 1 mM AG in MALME-3 cells (MALME-3 cells; 1 mM): ^b1 mM AG was determined to be non-toxic and incubated with MALME-3M and MALME-3 cells for 24 h prior to drug addition.
- toxicity of 1 mM AG in MALME-3M cells (MALME-3M cells; 1 mM): ^b1 mM AG was determined to be non-toxic and incubated with MALME-3M and MALME-3 cells for 24 h prior to drug addition; also recorded: ^b1 mM AG was determined to be non-toxic and incubated with MALME-3M cells for 24 h prior to drug addition

Structure (SMILES): CNCCCCNCCCCNCc1ccc(CNCCCCNCCCCNC)c2ccccc12 [Compound 7b, N1,N1′-(Naphthalene-1,4-diylbis(methylene))bis(N4-(4-(methylamino)butyl)butane-1,4-diamine)]
- effect on breast cancer cell lines in the NCI 60 cell-line screen [1]: exhibited an anti-proliferation effect in breast cancer cell lines, particularly the T-47D cell line
- effect on melanoma cell lines in the NCI 60 cell-line screen [1]: inhibited the proliferation of melanoma cell lines, particularly the MALME-3M cell line
- IC50 (CHO cells; Cricetulus griseus, CHO, 1 mM AG 24 h prior to drug addition, read-out: CHO IC50 (μM) w/AG): 0.044 µM
- IC50 (CHO cells; Cricetulus griseus, CHO, without AG, read-out: CHO IC50 (μM) w/o AG): 0.039 µM
- IC50 (CHO-MG* cells; Cricetulus griseus, CHO-MG, 1 mM AG 24 h prior to drug addition, read-out: CHO-MG* IC50 (μM) w/AG): > 100 µM
- IC50 (CHO-MG* cells; Cricetulus griseus, CHO-MG, without AG, read-out: CHO-MG* IC50 (μM) w/o AG): > 100 µM
- IC50 ratio w/AG (CHO-MG*/CHO) [2]: >2272
- IC50 ratio w/o AG (CHO-MG*/CHO) [2]: >2564
- IC50 (MALME-3 cells; Homo sapiens, MALME-3): 820 nM
- MALME-3/MALME-3M IC50 ratio [3]: 59
- IC50 (MALME-3M cells; Homo sapiens, Malme-3M, 48 h at 37° C., 1 mM AG, 10% Nu-Serum IV, read-out: MALME-3M IC50 (μM) w/ AG): 0.1 µM
- IC50 (MALME-3M cells; Homo sapiens, Malme-3M, 48 h at 37° C., without AG, 10% Nu-Serum IV, read-out: MALME-3M IC50 (μM) w/o AG): 0.17 µM
- IC50 (MALME-3M cells; Homo sapiens, Malme-3M, 96 h at 37° C., 1 mM AG, 10% FBS, read-out: MALME-3M IC50): 0.014 µM
- NCI 5-dose assay, MALME-3M cell line [4]: dose dependent response

Structure (SMILES): NCCCCNCCCCNCc1c2ccccc2c(CNCCCCNCCCCN)c2ccccc12 [Compound 6a]
- IC50 (CHO cells; [6]): 0.028 µM
- IC50 (CHO cells; [7]): 4 µM
- IC50 (CHO-MG* cells; [8]): > 100 µM
- IC50 (CHO-MG* cells; [9]): 8.4 µM
- IC50 ratio w/AG (CHO-MG*/CHO) [2]: >3571
- IC50 ratio w/o AG (CHO-MG*/CHO) [2]: 2.1
- IC50 (MALME-3 cells): 690 nM
- MALME-3/MALME-3M IC50 ratio [3]: 41
- Ki ([5]; read-out: Ki in L1210 cells): 390 nM
- IC50 (MALME-3M cells; [10]): 0.088 µM
- IC50 (MALME-3M cells; [11]): 0.29 µM
- IC50 (MALME-3M cells; [12]): 0.017 µM

Structure (SMILES): NCCCCNCCCN [Spermidine, spermidine, reference compound]
- non-toxic concentration in MALME-3 (MALME-3 cells; spermidine alone): up to 100 μM
- Ki ([5]; read-out: Ki in L1210 cells): 2460 nM
- non-toxic concentration in MALME-3M (MALME-3M cells; spermidine alone): up to 100 μM

Structure (SMILES): NCCCCNCCCCNCc1ccc(CNCCCCNCCCCN)c2ccccc12 [Compound 7a]
- IC50 (CHO cells; [6]): 0.022 µM
- IC50 (CHO cells; [7]): 5.5 µM
- IC50 (CHO-MG* cells; [8]): > 100 µM
- IC50 (CHO-MG* cells; [9]): 52.1 µM
- IC50 ratio w/AG (CHO-MG*/CHO) [2]: >4545
- IC50 ratio w/o AG (CHO-MG*/CHO) [2]: 9.5
- IC50 (MALME-3 cells): 1270 nM
- MALME-3/MALME-3M IC50 ratio [3]: 71
- Ki ([5]; read-out: Ki in L1210 cells): 170 nM
- IC50 (MALME-3M cells; [10]): 0.043 µM
- IC50 (MALME-3M cells; [11]): 0.43 µM
- IC50 (MALME-3M cells; [12]): 0.018 µM

Structure (SMILES): CNCCCCNCCCCNCc1c2ccccc2cc2ccccc12 [Compound 5b]
- IC50 (CHO cells; [6]): 2.8 µM
- IC50 (CHO cells; [7]): 2.1 µM
- IC50 (CHO-MG* cells; [8]): 10.7 µM
- IC50 (CHO-MG* cells; [9]): 11.3 µM
- IC50 ratio w/AG (CHO-MG*/CHO) [2]: 3.8
- IC50 ratio w/o AG (CHO-MG*/CHO) [2]: 5.4
- IC50 (MALME-3 cells): 620 nM
- MALME-3/MALME-3M IC50 ratio [3]: 1.4
- IC50 (MALME-3M cells; [10]): 0.6 µM
- IC50 (MALME-3M cells; [11]): 0.62 µM
- IC50 (MALME-3M cells; [12]): 0.45 µM

Structure (SMILES): NCCCCNCCCCNCc1cc(CNCCCCNCCCCN)cc(CNCCCCNCCCCN)c1 [Compound 32, reference compound]
- fold less toxic than 34a in the CHO cell line (CHO cells; CHO, versus 34a): > 3500 fold
- IC50 (CHO cells; Cricetulus griseus, CHO, Table 4, 1 mM AG 24 h prior to drug addition, read-out: CHO IC50): > 100 µM
- MTD (μM) in CHO (maximum tolerated dose) (CHO cells; hamster): 80 µM
- IC50 (CHO-MG* cells; Cricetulus griseus, CHO-MG, Table 4, 1 mM AG 24 h prior to drug addition, read-out: CHO-MG* IC50): > 100 µM
- IC50 ratio w/AG (CHO-MG*/CHO) [2]: 1
- Ki ([5]; unit inferred, read-out: Ki values in L1210 cells): 520 ± 110 nM
